Converted amounts (≈) assume the structure as drawn.
Columns and labels:
Test in all cases: Microdilution antimicrobial susceptibility test (MIC)
Assay type in all cases: cell-based
[1] = test system: E faecalis; conditions: broth microdilution, 18-24 h, MIC = 90% inhibition of growth
[2] = test system: E coli; conditions: broth microdilution, 18-24 h, MIC = 90% inhibition of growth
[3] = test system: S cerevisiae; conditions: broth microdilution, 18-24 h, MIC = 90% inhibition of growth
[4] = test system: H influenzae; conditions: broth microdilution, 18-24 h, MIC = 90% inhibition of growth
[5] = test system: S pneumoniae; conditions: broth microdilution, 18-24 h, CO2-enriched atmosphere, MIC = 90% inhibition of growth
[6] = test system: M. catarrhalis; conditions: broth microdilution, 18-24 h, MIC = 90% inhibition of growth
[7] = test system: S aureus; conditions: broth microdilution, 18-24 h, MIC = 90% inhibition of growth
[8] = test system: E coli (ImpA); conditions: broth microdilution, 18-24 h, MIC = 90% inhibition of growth
Description: Microdilution Antimicrobial Susceptibility Test Assay
Stock solutions of tested compounds were prepared in N,N-dimethylformamide (DMF) at a concentration of 5 mg/mL. Working solutions of the tested compounds were then prepared from the stock solutions, in Mueller-Hinton broth (MHB) with a starting concentration of 64 μg/mL.
Bacterial inocula were prepared from overnight culture (i.e., one fresh colony from agar plate in 5 ml MHB; H. influenzae was grown in MHB with the addition of yeast extract, haematin, and NAD), centrifuged 2×5 min/3000 rpm (for S. pneumoniae and H. influenzae, 2×10 min/3000 rpm), and dispensed in 5 ml of fresh MHB each time, such that the bacterial suspension is diluted to obtain 100 colony forming units (cfu) in a microplate well (100 μl total volume).
Microplate wells were filled with two-fold dilutions of test compound (50 Al), starting with 64 μg/ml. Wells were then filled with 50 μl of bacterial inoculum (final volume: 100 μl/well). The plates were incubated at 37° C. for 18-24 hours (S. pneumoniae was grown in a CO2-enriched atmosphere).

Structure (SMILES) | MIC E faecalis MIC2 [1] [µg/mL] | MIC E coli MIC2 [2] [µg/mL] | MIC S cerevisiae MIC7 [3] [µg/mL] | MIC H influenzae MIC4 [4] [µg/mL] | MIC S pneumoniae MIC6 [5] [µg/mL] | MIC M. catarrhalis MIC2 [6] [µg/mL] | MIC S aureus MIC2 [7] [µg/mL] | MIC E coli (ImpA) MIC9 [8] [µg/mL] | MIC ([1]; read-out: MIC E faecalis MIC2) [µg/mL] | MIC ([2]; read-out: MIC E coli MIC2) [µg/mL] | MIC ([3]; read-out: MIC S cerevisiae MIC7) [µg/mL] | MIC ([4]; read-out: MIC H influenzae MIC4) [µg/mL] | MIC ([5]; read-out: MIC S pneumoniae MIC6) [µg/mL] | MIC ([6]; Moraxella catarrhalis, read-out: MIC M. catarrhalis MIC2) [µg/mL] | MIC ([7]; read-out: MIC S aureus MIC2) [µg/mL] | MIC ([8]; read-out: MIC E coli (ImpA) MIC9) [µg/mL]
C=CCn1c(S)nnc1-c1ccc([N+](=O)[O-])o1 [Compound 130] | 64 (≈ 254 µM) | >64 | >64 | 32 (≈ 127 µM) | 16 (≈ 63.4 µM) | 4 (≈ 15.9 µM) | >64 | 64 (≈ 254 µM) | – | – | – | – | – | – | – | –
CCCCn1c(S)nnc1-c1ccc([N+](=O)[O-])o1 [Compound 133] | >64 | >64 | 64 (≈ 239 µM) | 32 (≈ 119 µM) | 64 (≈ 239 µM) | 32 (≈ 119 µM) | 64 (≈ 239 µM) | 64 (≈ 239 µM) | – | – | – | – | – | – | – | –
O=[N+]([O-])c1ccc(-c2nnc(S)n2-c2ccccc2)o1 [Compound 134] | 64 (≈ 222 µM) | – | >64 | 8 (≈ 27.8 µM) | 8 (≈ 27.8 µM) | 0.25 (≈ 0.867 µM) | 2 (≈ 6.94 µM) | 2 (≈ 6.94 µM) | – | – | – | – | – | – | – | –
O=[N+]([O-])c1ccc(-c2nnc(S)n2Cc2ccccc2)o1 [Compound 135] | 16 (≈ 52.9 µM) | >64 | >64 | 64 (≈ 212 µM) | 8 (≈ 26.5 µM) | 1 (≈ 3.31 µM) | 32 (≈ 106 µM) | 32 (≈ 106 µM) | – | – | – | – | – | – | – | –
O=[N+]([O-])c1ccc(-c2nnc(S)n2-c2ccc(F)cc2)o1 [Compound 136] | 64 (≈ 209 µM) | >64 | 64 (≈ 209 µM) | 16 (≈ 52.2 µM) | 8 (≈ 26.1 µM) | 4 (≈ 13.1 µM) | 32 (≈ 104 µM) | 16 (≈ 52.2 µM) | – | – | – | – | – | – | – | –
O=[N+]([O-])c1ccc(-c2nnc(S)n2C2CCCCC2)o1 [Compound 137] | 32 (≈ 109 µM) | >64 | >64 | 16 (≈ 54.4 µM) | 8 (≈ 27.2 µM) | 1 (≈ 3.4 µM) | >64 | 32 (≈ 109 µM) | – | – | – | – | – | – | – | –
O=[N+]([O-])c1ccc(-c2nnc(S)n2-c2ccc(I)cc2)o1 [Compound 138] | 1 (≈ 2.41 µM) | >64 | 16 (≈ 38.6 µM) | 8 (≈ 19.3 µM) | – | <0.12 | 0.5 (≈ 1.21 µM) | 0.25 (≈ 0.604 µM) | – | – | – | – | – | – | – | –
O=[N+]([O-])c1ccc(-c2nnc(S)n2-c2ccc(Cl)cc2)o1 [Compound 139, 4-(4-Chlorophenyl)-5-(5-nitrofuranyl)-4H-1,2,4-triazol-3-thiol] | – | – | – | – | – | – | – | – | 2 (≈ 6.2 µM) | > 64 | 32 (≈ 99.2 µM) | 2 (≈ 6.2 µM) | 2 (≈ 6.2 µM) | < 0.12 | 0.25 (≈ 0.775 µM) | < 0.12
O=[N+]([O-])c1ccc(-c2nnc(S)n2-c2ccc(Br)cc2)o1 [Compound 141] | 2 (≈ 5.45 µM) | >64 | 64 (≈ 174 µM) | 8 (≈ 21.8 µM) | 2 (≈ 5.45 µM) | 0.125 (≈ 0.34 µM) | 0.25 (≈ 0.681 µM) | <0.12 | – | – | – | – | – | – | – | –
O=[N+]([O-])c1ccc(-c2nnc(S)n2-c2ccc(Br)c(Cl)c2)o1 [Compound 142] | 1 (≈ 2.49 µM) | >64 | 64 (≈ 159 µM) | 8 (≈ 19.9 µM) | 2 (≈ 4.98 µM) | <0.12 | <0.12 | <0.12 | – | – | – | – | – | – | – | –
